According to patent publication US8080529B2, “Macrolides with anti-inflammatory activity” (Glaxo Group Limited, priority 2005, dated 2011):
Like-named read-outs stand apart in the source and are kept apart here.

How the values were obtained:
Hep G2 = test: Cytotoxicity assay (MTT), Hep G2 cell line; type: cell-based; details: 24 h
Method in brief: (§1)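 Viability was read as MTT-formazan absorbance at 490 nm after 0.5-2 h with reagent. This followed 24 h compound exposure (50 μM, 12.5 μM) at 37° C in RPM medium. Result expressed as OD490 treated over untreated cells ×100.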

[1] = test system: human peripheral blood mononuclear cells (PBMC); test: Effects on human T-cell proliferation in vitro (3H-thymidine incorporation); type: cell-based; details: Homo sapiens, PBMC, read-out: Percentage of inhibition of proliferation of stimulated PBMC
Method in brief: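 Proliferation of human peripheral blood mononuclear cells (PBMC) was assessed in the presence of test compounds. During the final 18 h of culture each well received 1 μCi of ^3H-thymidine. Cells were then collected onto a 96-well filter with a multiple cell harvester, and ^3H-thymidine incorporation was counted on a TopCount NXT to give percentage inhibition of proliferation.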

TNF-α [2] = test: Lipopolysaccharide induced TNF-α production in Balb/cJ mice; type: in vivo; details: Mus musculus, ip, 1.5 h; 10 mg/kg intraperitoneally, 30 min before LPS; 90 min after LPS; read-out: % inhibition of TNF-α production (plasma)
TNF-α [3] = test: Inhibition of TNF-α production by stimulated human peripheral blood leukocytes in vitro; type: cell-based; details: Homo sapiens, Leukocyte, read-out: Percentage of inhibition of TNF-α production
Method in brief: (§2)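 Values are percentage inhibition of cytokine release versus stimulated leukocytes lacking compound. Human blood leukocytes received 50 μM or 10 μM compound for 2 h before overnight LPS, PMA or zymosan stimulation, and supernatants were assayed by ELISA.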

A549 = test: Cytotoxicity assay (MTT), A549 cell line; type: cell-based; details: 24 h
Method in brief: as §1

IL-6 = test: Inhibition of IL-6 production by stimulated human peripheral blood leukocytes in vitro; type: cell-based; details: Homo sapiens, Leukocyte, read-out: Percentage of inhibition of IL-6 production
Method in brief: as §2

IL-1α = test: Inhibition of IL-1 production by stimulated human peripheral blood leukocytes in vitro; type: cell-based; details: Homo sapiens, Leukocyte, read-out: Percentage of inhibition of IL-1α production
IL-8 = test: Inhibition of IL-8 production by stimulated human peripheral blood leukocytes in vitro; type: cell-based; details: Homo sapiens, Leukocyte, read-out: Percentage of inhibition of IL-8 production
Method in brief: as §2

SMILES	Percentage of inhibition of cell growth (Hep G2; 12.5 μM) [%]	Percentage of inhibition of cell growth (Hep G2; 50 μM) [%]	inhibition at 10 µM ([1]; PHA) [%]	inhibition at 50 µM ([1]; PHA) [%]	inhibition at 10 µM ([1]; PMA + iono.) [%]	inhibition at 50 µM ([1]; PMA + iono.) [%]	inhibition in vivo at 10 mg/kg (TNF-α [2]) [%]	inhibition at 10 µM (TNF-α [3]; LPS-stimulated PBL) [%]	inhibition at 10 µM (TNF-α [3]; PMA-stimulated PBL) [%]	inhibition at 10 µM (TNF-α [3]; zymosan-stimulated PBL) [%]	inhibition at 50 µM (TNF-α [3]; LPS-stimulated PBL) [%]	inhibition at 50 µM (TNF-α [3]; PMA-stimulated PBL) [%]	inhibition at 50 µM (TNF-α [3]; zymosan-stimulated PBL) [%]	Percentage of inhibition of cell growth (A549; 12.5 μM) [%]	Percentage of inhibition of cell growth (A549; 50 μM) [%]	inhibition at 10 µM (IL-6; LPS-stimulated PBL) [%]	inhibition at 10 µM (IL-6; PMA-stimulated PBL) [%]	inhibition at 10 µM (IL-6; zymosan-stimulated PBL) [%]	inhibition at 50 µM (IL-6; LPS-stimulated PBL) [%]	inhibition at 50 µM (IL-6; PMA-stimulated PBL) [%]	also measured
CC[C@H]1OC(=O)[C@H](C)[C@@H](O[C@H]2C[C@@](C)(OC)[C@@H](OC(=O)CCN(C)CCO)[C@H](C)O2)[C@H](C)[C@@H](O[C@@H]2O[C@H](C)C[C@H](N(C)C)[C@H]2O)[C@](C)(OC)C[C@@H](C)C(=O)N[C@H](C)[C@@H](O)[C@]1(C)O [Example 15]	3	0	68	99	53	98	100	61	82	93	99	96	100	0	5	39	50	76	93	95	inhibition at 50 µM (IL-6; zymosan-stimulated PBL): 96%; inhibition at 10 µM (IL-1α; LPS-stimulated PBL): 80%; inhibition at 10 µM (IL-1α; PMA-stimulated PBL): 80%; inhibition at 10 µM (IL-1α; zymosan-stimulated PBL): 96%; inhibition at 50 µM (IL-1α; LPS-stimulated PBL): 98%; inhibition at 50 µM (IL-1α; PMA-stimulated PBL): 96%; inhibition at 50 µM (IL-1α; zymosan-stimulated PBL): 99%; inhibition at 10 µM (IL-8; LPS-stimulated PBL): 38%; inhibition at 10 µM (IL-8; PMA-stimulated PBL): 0%; inhibition at 10 µM (IL-8; zymosan-stimulated PBL): 42%; inhibition at 50 µM (IL-8; LPS-stimulated PBL): 94%; inhibition at 50 µM (IL-8; PMA-stimulated PBL): 95%; inhibition at 50 µM (IL-8; zymosan-stimulated PBL): 91%
CC[C@H]1OC(=O)[C@H](C)[C@@H](O[C@H]2C[C@@](C)(OC)[C@@H](OC(=O)CCN3CCN(CCN(C)C)CC3)[C@H](C)O2)[C@H](C)[C@@H](O[C@@H]2O[C@H](C)C[C@H](N(C)C)[C@H]2O)[C@](C)(OC)C[C@@H](C)C(=O)N[C@H](C)[C@@H](O)[C@]1(C)O [Example 17]	5	2	0	70	3	49	84	13	46	30	21	67	46	5	2	9	37	33	14	55	inhibition at 50 µM (IL-6; zymosan-stimulated PBL): 60%; inhibition at 10 µM (IL-1α; LPS-stimulated PBL): 25%; inhibition at 10 µM (IL-1α; PMA-stimulated PBL): 55%; inhibition at 10 µM (IL-1α; zymosan-stimulated PBL): 58%; inhibition at 50 µM (IL-1α; LPS-stimulated PBL): 44%; inhibition at 50 µM (IL-1α; PMA-stimulated PBL): 75%; inhibition at 50 µM (IL-1α; zymosan-stimulated PBL): 90%; inhibition at 10 µM (IL-8; LPS-stimulated PBL): 4%; inhibition at 10 µM (IL-8; PMA-stimulated PBL): 21%; inhibition at 10 µM (IL-8; zymosan-stimulated PBL): 20%; inhibition at 50 µM (IL-8; LPS-stimulated PBL): 6%; inhibition at 50 µM (IL-8; PMA-stimulated PBL): 13%; inhibition at 50 µM (IL-8; zymosan-stimulated PBL): 13%
CC[C@H]1OC(=O)[C@H](C)[C@@H](O[C@H]2C[C@@](C)(OC)[C@@H](OC(=O)CCN(C)CCN(CC)CC)[C@H](C)O2)[C@H](C)[C@@H](O[C@@H]2O[C@H](C)C[C@H](N(C)C)[C@H]2O)[C@](C)(OC)C[C@@H](C)C(=O)N[C@H](C)[C@@H](O)[C@]1(C)O [Example 21]	8	4	0	80	0	74	61	0	8	5	10	75	39	5	4	1	17	22	22	63	inhibition at 50 µM (IL-6; zymosan-stimulated PBL): 50%; inhibition at 10 µM (IL-1α; LPS-stimulated PBL): 14%; inhibition at 10 µM (IL-1α; PMA-stimulated PBL): 31%; inhibition at 10 µM (IL-1α; zymosan-stimulated PBL): 58%; inhibition at 50 µM (IL-1α; LPS-stimulated PBL): 54%; inhibition at 50 µM (IL-1α; PMA-stimulated PBL): 69%; inhibition at 50 µM (IL-1α; zymosan-stimulated PBL): 86%; inhibition at 10 µM (IL-8; LPS-stimulated PBL): 0%; inhibition at 10 µM (IL-8; PMA-stimulated PBL): 6%; inhibition at 10 µM (IL-8; zymosan-stimulated PBL): 0%; inhibition at 50 µM (IL-8; LPS-stimulated PBL): 4%; inhibition at 50 µM (IL-8; PMA-stimulated PBL): 23%; inhibition at 50 µM (IL-8; zymosan-stimulated PBL): 13%
